Measured values: patent US11046686B2, “Thiadiazole IRAK4 compounds” (Gilead Sciences, Inc., priority 2018, dated 2021)
Where two headings read alike, the source gives them in different places.

Key:
TNFα = assay: IRAK4 Monocyte TNFα Cell Based Assay; parameters: species or system human
Outline: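 Human monocytes (5,000/well) pretreated with compound 1 h at 37 °C (0.1% DMSO final), then stimulated with 50 pg/ml LPS for 4 h. Secreted TNFα measured by TR-FRET two-antibody detection after overnight incubation at room temperature; % control relative to unstimulated and LPS-stimulated wells.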

IRAK4 enzyme = IRAK4 enzyme (Homo sapiens (Human), UniProt Q9NWZ3); assay: IRAK4 Biochemical Assay (TR-FRET, STK1 KinEASE)
Outline: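 IRAK4 (0.75 nM) preincubated 15 min with compound and […] STK1 peptide, then started with 500 μM ATP in HEPES pH 7.0 buffer with MgCl2, DTT, BSA, NP-40; 120 min at room temperature.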

[1] = Homo sapiens, Monocyte, read-out: EC50 MONO TNF HTRF
[2] = Homo sapiens, Monocyte, human monocytes, second part of Table 2, compounds 33-343, unit inferred, read-out: EC50 MONO TNF HTRF
[3] = second part of Table 2, compounds 33-343, unit inferred, read-out: IC50 IRAK4-HTBS
[4] = Homo sapiens, Monocyte, human monocytes, LPS stimulated, compounds 1-32, read-out: EC50 TNF
[5] = compounds 1-32, read-out: IC50 HTRF
[6] = human monocytes, second part of Table 2, compounds 33-343, unit inferred, read-out: EC50 MONO TNF HTRF

Chain of IRAK4 enzyme (Q9NWZ3 whole entry): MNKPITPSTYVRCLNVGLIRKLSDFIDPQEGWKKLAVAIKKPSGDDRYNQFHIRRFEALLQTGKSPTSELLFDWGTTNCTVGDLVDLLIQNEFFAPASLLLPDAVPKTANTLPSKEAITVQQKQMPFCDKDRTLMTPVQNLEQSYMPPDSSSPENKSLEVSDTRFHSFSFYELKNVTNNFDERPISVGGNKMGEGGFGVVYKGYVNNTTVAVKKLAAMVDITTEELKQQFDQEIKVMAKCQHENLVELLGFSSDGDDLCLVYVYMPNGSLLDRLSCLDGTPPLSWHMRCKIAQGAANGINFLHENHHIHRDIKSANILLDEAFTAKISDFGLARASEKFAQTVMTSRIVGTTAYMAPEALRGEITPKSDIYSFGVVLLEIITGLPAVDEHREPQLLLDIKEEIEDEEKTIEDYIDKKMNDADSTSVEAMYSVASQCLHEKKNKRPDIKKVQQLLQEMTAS

Compound	IC50 (IRAK4 enzyme) [nM]	EC50 (TNFα; [2]) [nM]	other results
CC(C)Nc1cc(-c2ccc3cc(C#N)cnn23)ncc1-c1nnc(N2CC3CCC(C2)N3C(=O)C2CC2)s1 [Compound 263, 7-(5-(5-(8-(cyclopropanecarbonyl)-3,8-diazabicyclo[3.2.1]octan-3-yl)-1,3,4-thiadiazol-2-yl)-4-(isopropylamino)pyridin-2-yl)pyrrolo[1,2-b]pyridazine-3-carbonitrile]	1.08	–	EC50 (TNFα; [1]): 5.1 nM
CNc1cc(-c2ccc3cc(C#N)cnn23)ncc1-c1nnc(N2CC[C@H](NC(C)=O)C(F)(F)C2)s1 [Example 307, (S)-N-(1-(5-(6-(3-cyanopyrrolo[1,2-b]pyridazin-7-yl)-4-(methylamino)pyridin-3-yl)-1,3,4-thiadiazol-2-yl)-3,3-difluoropiperidin-4-yl)acetamide]	0.83	53.7	–
CC(C)Nc1cc(-c2ccc3cc(C#N)cnn23)ncc1-c1nnc(C(=O)N2CCC[C@@H]2CO)s1 [Example 214, (R)-7-(5-(5-(2-(hydroxymethyl)pyrrolidine-1-carbonyl)-1,3,4-thiadiazol-2-yl)-4-(isopropylamino)pyridin-2-yl)pyrrolo[1,2-b]pyridazine-3-carbonitrile]	0.46	33.2	–
CC(C)Nc1cc(-c2ccc3cc(C#N)cnn23)ncc1-c1nnc(C2CCN(CC(F)F)CC2)s1 [Example 133, 7-(5-(5-(1-(2,2-difluoroethyl)piperidin-4-yl)-1,3,4-thiadiazol-2-yl)-4-(isopropylamino)pyridin-2-yl)pyrrolo[1,2-b]pyridazine-3-carbonitrile]	1.47	531	–
CC(C)Nc1cc(-c2ccc3cc(C#N)cnn23)ncc1-c1nnc(N2CC[C@@H](O)C(F)(F)C2)s1 [Example 162, (R)-7-(5-(5-(3,3-difluoro-4-hydroxypiperidin-1-yl)-1,3,4-thiadiazol-2-yl)-4-(isopropylamino)pyridin-2-yl)pyrrolo[1,2-b]pyridazine-3-carbonitrile]	2.29	26.5	–
CC(C)Nc1cc(-c2ccc3cc(C#N)cnn23)ncc1-c1nnc(N2CCOCC2)s1 [Example 131, 7-(4-(isopropylamino)-5-(5-morpholino-1,3,4-thiadiazol-2-yl)pyridin-2-yl)pyrrolo[1,2-b]pyridazine-3-carbonitrile]	0.53	14.3	–
N#Cc1cnn2c(-c3cc(NC4CCOCC4)c(-c4nnc(N5CC6CCC(C5)O6)s4)cn3)ccc2c1 [Compound 256, 7-(5-(5-(8-oxa-3-azabicyclo[3.2.1]octan-3-yl)-1,3,4-thiadiazol-2-yl)-4-((tetrahydro-2H-pyran-4-yl)amino)pyridin-2-yl)pyrrolo[1,2-b]pyridazine-3-carbonitrile]	0.68	4.6	–
CNC(=O)C1CCN(c2nnc(-c3cnc(-c4ccc5cc(C#N)cnn45)cc3NC(C)C)s2)CC1 [Example 305, 1-(5-(6-(3-cyanopyrrolo[1,2-b]pyridazin-7-yl)-4-(isopropylamino)pyridin-3-yl)-1,3,4-thiadiazol-2-yl)-N-methylpiperidine-4-carboxamide]	1.02	15.9	–
CC(C)Nc1cc(-c2ccc3cc(C#N)cnn23)ncc1-c1nncs1 [Example 211, 7-(4-(isopropylamino)-5-(1,3,4-thiadiazol-2-yl)pyridin-2-yl)pyrrolo[1,2-b]pyridazine-3-carbonitrile]	–	78.2	IC50 (IRAK4 enzyme; [3]): 0.98 nM
CC(C)Nc1cc(-c2ccc3cc(C#N)cnn23)ncc1-c1nnc(N2CC3(COC3)C2)s1 [Compound 252, 7-(5-(5-(2-oxa-6-azaspiro[3.3]heptan-6-yl)-1,3,4-thiadiazol-2-yl)-4-(isopropylamino)pyridin-2-yl)pyrrolo[1,2-b]pyridazine-3-carbonitrile]	0.29	7	–
CC(C)Nc1cc(-c2ccc3cc(C#N)cnn23)ncc1-c1nnc(N2CCC3(CC2)COC3)s1 [Example 4, 7-(5-(5-(2-oxa-7-azaspiro[3.5]nonan-7-yl)-1,3,4-thiadiazol-2-yl)-4-(isopropylamino)pyridin-2-yl)pyrrolo[1,2-b]pyridazine-3-carbonitrile]	–	–	EC50 (TNFα; [4]): 23 nM; IC50 (IRAK4 enzyme; [5]): 1 nM
CC(C)Nc1cc(-c2ccc3cc(C#N)cnn23)ncc1-c1nnc(-c2ccc(N)cc2)s1 [Example 7, 7-(5-(5-(4-aminophenyl)-1,3,4-thiadiazol-2-yl)-4-(isopropylamino)pyridin-2-yl)pyrrolo[1,2-b]pyridazine-3-carbonitrile]	–	–	EC50 (TNFα; [4]): > 10000 nM; IC50 (IRAK4 enzyme; [5]): 9 nM
CC(C)(O)[C@@H]1C[C@H]1c1nnc(-c2cnc(-c3ccc4cc(C#N)cnn34)cc2NC2COC2)s1 (single isomer, unassigned; isomer 2) [136 Isomer 2]	–	–	EC50 (TNFα; [6]): 4 nM; IC50 (IRAK4 enzyme; [3]): 0.53 nM
C[C@]1(O)CCN(c2nnc(-c3cnc(-c4ccc5cc(C#N)cnn45)cc3NC3COC3)s2)C[C@@H]1F [Example 207, 7-(5-(5-((3S,4S)-3-fluoro-4-hydroxy-4-methylpiperidin-1-yl)-1,3,4-thiadiazol-2-yl)-4-(oxetan-3-ylamino)pyridin-2-yl)pyrrolo[1,2-b]pyridazine-3-carbonitrile]	0.69	7.9	–
CC(C)Nc1cc(-c2ccc3cc(C#N)cnn23)ncc1-c1nnc(N2CC3(CCO3)C2)s1 [Example 293, 7-(5-(5-(1-oxa-6-azaspiro[3.3]heptan-6-yl)-1,3,4-thiadiazol-2-yl)-4-(isopropylamino)pyridin-2-yl)pyrrolo[1,2-b]pyridazine-3-carbonitrile]	1.52	365	–
CC(C)Nc1cc(-c2ccc3cc(C#N)cnn23)ncc1-c1nnc(N2C[C@@H]3C[C@H]2CO3)s1 [Compound 238, 7-(5-(5-((1S,4S)-2-oxa-5-azabicyclo[2.2.1]heptan-5-yl)-1,3,4-thiadiazol-2-yl)-4-(isopropylamino)pyridin-2-yl)pyrrolo[1,2-b]pyridazine-3-carbonitrile]	0.46	12.6	–
CC(=O)NC12CCC(c3nnc(-c4cnc(-c5ccc6cc(C#N)cnn56)cc4NC(C)C)s3)(CC1)C2 [Example 284, N-(4-(5-(6-(3-cyanopyrrolo[1,2-b]pyridazin-7-yl)-4-(isopropylamino)pyridin-3-yl)-1,3,4-thiadiazol-2-yl)bicyclo[2.2.1]heptan-1-yl)acetamide]	0.69	17.6	–
CC(=O)N[C@@H]1CCN(c2nnc(-c3cnc(-c4ccc5cc(C#N)cnn45)cc3NC3COC3)s2)CC1(F)F [Example 183, (R)-N-(1-(5-(6-(3-cyanopyrrolo[1,2-b]pyridazin-7-yl)-4-(oxetan-3-ylamino)pyridin-3-yl)-1,3,4-thiadiazol-2-yl)-3,3-difluoropiperidin-4-yl)acetamide]	0.5	8.8	–
CC(=O)N[C@H]1CC[C@H](c2nnc(-c3cnc(-c4ccc5cc(C#N)cnn45)cc3N[C@H]3CC[C@@H](O)CC3)s2)CC1 [Compound 244, N-((1R,4r)-4-(5-(6-(3-cyanopyrrolo[1,2-b]pyridazin-7-yl)-4-(((1s,4S)-4-hydroxycyclohexyl)amino)pyridin-3-yl)-1,3,4-thiadiazol-2-yl)cyclohexyl)acetamide]	–	–	EC50 (TNFα; [6]): 9.1 nM; IC50 (IRAK4 enzyme; [3]): 0.93 nM
CC(=O)N[C@H]1CCN(c2nnc(-c3cnc(-c4ccc5cc(C#N)cnn45)cc3N[C@H](C)C#N)s2)CC1(F)F [Example 152, N-((S)-1-(5-(4-(((R)-1-cyanoethyl)amino)-6-(3-cyanopyrrolo[1,2-b]pyridazin-7-yl)pyridin-3-yl)-1,3,4-thiadiazol-2-yl)-3,3-difluoropiperidin-4-yl)acetamide]	0.58	10.7	–
CC(=O)N[C@H]1CC[C@H](c2nnc(-c3cnc(-c4ccc5cc(C#N)cnn45)cc3NC(C)C)s2)C1 [Compound 247, N-((1S,3S)-3-(5-(6-(3-cyanopyrrolo[1,2-b]pyridazin-7-yl)-4-(isopropylamino)pyridin-3-yl)-1,3,4-thiadiazol-2-yl)cyclopentyl)acetamide]	0.8	25.1	–
CC(C)Nc1cc(-c2ccc3cc(C#N)cnn23)ncc1-c1nnc(C(=O)N2CC[C@H](NC(=O)OC(C)(C)C)C2)s1 [Example 223, tert-butyl (S)-(1-(5-(6-(3-cyanopyrrolo[1,2-b]pyridazin-7-yl)-4-(isopropylamino)pyridin-3-yl)-1,3,4-thiadiazole-2-carbonyl)pyrrolidin-3-yl)carbamate]	1.43	1360	–
CC(C)Nc1cc(-c2ccc3cc(C#N)cnn23)ncc1-c1nnc(N2CC3CC(C2)N3C(=O)C(C)(C)O)s1 [Compound 273, 7-(5-(5-(6-(2-hydroxy-2-methylpropanoyl)-3,6-diazabicyclo[3.1.1]heptan-3-yl)-1,3,4-thiadiazol-2-yl)-4-(isopropylamino)pyridin-2-yl)pyrrolo[1,2-b]pyridazine-3-carbonitrile]	0.68	–	EC50 (TNFα; [1]): 4.1 nM
CC(C)Nc1cc(-c2ccc3cc(C#N)cnn23)ncc1-c1nnc(C(=O)N2CCOCC2)s1 [Example 18, 7-(4-(isopropylamino)-5-(5-(morpholine-4-carbonyl)-1,3,4-thiadiazol-2-yl)pyridin-2-yl)pyrrolo[1,2-b]pyridazine-3-carbonitrile]	–	–	EC50 (TNFα; [4]): > 10000 nM; IC50 (IRAK4 enzyme; [5]): 1000 nM
[2H]C([2H])([2H])C(O)(CCc1nnc(-c2cnc(-c3ccc4cc(C#N)cnn34)cc2NC(C)C)s1)C([2H])([2H])[2H] [Example 317, 7-(5-(5-(3-hydroxy-3-(methyl-d3)butyl-4,4,4-d3)-1,3,4-thiadiazol-2-yl)-4-(isopropylamino)pyridin-2-yl)pyrrolo[1,2-b]pyridazine-3-carbonitrile]	0.6	4.4	–
